Experimental data reported in patent US10738127B2, “Monoclonal antibodies prevent cell surface protein shedding and block tumor growth” (VERITAS BIOTECNOLOGIA LTDA, priority 2016, dated 2020).

Experiments:
[1] = system: E-cadherin linker segment; test: Titration of immunized mice sera against the E-cadherin linker segment peptides (FIG. 6); format: binding; details: immunization of mice
From the text: Polyclonal antibodies against synthetic peptides pep_VLS02 (RKAQPVEAGLQIPAC; SEQ ID NO: 4) and pep_VLS03 (VEAGLQIPAC; SEQ ID NO: 3) were produced according to methods known in the art.

MMP-9 = MMP-9 (Homo sapiens, UniProt P14780); test: MMP-9 enzymatic activity / E-cadherin cleavage assay; format: biochemical
Method: The synthetic peptide pep_VLS02 was used as a competitive inhibitor of MMP-9. The MMP-9 enzymatic activity is reduced in the presence of synthetic peptide (FIG. 10). The inhibitory effect of pep_VLS02 against cleavage of E-cadherin opens a new window for the development of new inhibitors.
On the other hand, when the polyclonal antibody pAb_VLS02 is added to the assay, in the presence of its corresponding peptide, the MMP-9 activity was reestablished (FIG. 10). Thus, pep_VLS02 and its correspondent polyclonal antibody modulate MMP-9 activity and inhibit the E-cadherin cleavage.

Sequence of MMP-9 (P14780 94-707, species assumed): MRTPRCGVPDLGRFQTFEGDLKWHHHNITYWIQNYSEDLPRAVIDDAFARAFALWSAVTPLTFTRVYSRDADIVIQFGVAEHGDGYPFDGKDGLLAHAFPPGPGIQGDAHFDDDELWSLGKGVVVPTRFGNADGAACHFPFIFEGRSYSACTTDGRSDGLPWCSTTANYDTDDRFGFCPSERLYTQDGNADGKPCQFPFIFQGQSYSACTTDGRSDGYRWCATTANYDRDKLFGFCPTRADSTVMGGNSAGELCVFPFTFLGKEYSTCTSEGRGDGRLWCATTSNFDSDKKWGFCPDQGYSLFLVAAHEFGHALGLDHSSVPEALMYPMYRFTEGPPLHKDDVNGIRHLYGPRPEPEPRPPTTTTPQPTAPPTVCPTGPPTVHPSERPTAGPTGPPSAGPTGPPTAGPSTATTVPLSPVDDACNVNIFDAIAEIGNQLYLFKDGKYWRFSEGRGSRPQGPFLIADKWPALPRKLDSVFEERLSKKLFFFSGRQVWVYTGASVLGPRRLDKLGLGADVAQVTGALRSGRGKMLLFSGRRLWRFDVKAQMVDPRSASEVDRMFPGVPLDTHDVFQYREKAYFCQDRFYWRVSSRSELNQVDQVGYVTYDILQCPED

In the case of “VEAGLQIPAC [pep_VLS03, synthetic antigenic peptide of the E-cadherin linker segment plus a cysteine residue]”, the immunogenic capacity [1] is reported as “confirmed the immunogenic capacity”.

For “RKAQPVEAGLQIPAC [pep_VLS02, synthetic antigenic peptide covering the cleavage site of E-cadherin plus a cysteine residue at the end]”, the immunogenic capacity [1] was “confirmed the immunogenic capacity”, the “E-cadherin cleavage by a metalloprotease” value (MMP-9; FIG. 10) was “inhibit E-cadherin cleavage” and the MMP-9 enzymatic activity (MMP-9; in the presence of synthetic peptide as competitive inhibitor) was “reduced”.
